How the values were obtained:
[1] = biological target: T1, AHK4 (Arabidopsis thaliana, UniProt Q9C5U0); conditions: literature result, Romanov et al., J. Exp. Bot. 57:4051-4058 (2006); cited from earlier work
T1 construct: host or cells: E. coli

[2] = Crystallization of purified AHK4 in the presence of tZr (difference density in ligand binding pocket); assay type: physicochemical; conditions: no difference density for the ribose portion of tZr in the crystal complex
From the text: Protein Expression and Purification. A synthetic gene comprising the sensor domain of AHK4 (residues 126-395, numbering in accordance with the short splice-variant of AHK4) was codon-optimised for expression in E. coli (Geneart, Regensburg, Germany). The Ncol/Notl digested synthetic fragment was inserted into a modified pET21d (Novagen) plasmid providing N-terminal 7xHis and Strep II affinity tags and expressed as a SUMO fusion protein in E. coli Origami (DE3) cells (Novagen). Cells grown to an OD600nm of 0.8 were induced with 0.3 mM isopropyl-β-D-thiogalactopyranoside in Terrific Broth at 16° C. for 22 h. Cells were collected by centrifugation at 4,500 xg for 30 min, washed in PBS buffer, incubated with 100 mg lysozyme for 1 h at room temperature and snap-frozen in liquid nitrogen. For protein purification cells were thawn in buffer A (25 mM Tris, pH 7.6, 500 mM NaCl, 15 mM Imidazole and, if applicable, 0.1 mM of the respective cytokinin), lysed by sonication, and centrifuged at 75,000 xg for 90 min. The supernatant was incubated in batch with 5 mL HIS-Select Cobalt Affinity Gel (Sigma), washed with buffer A and eluted in buffer A supplemented with 200 mM imidazole. The fusion protein was dialysed against buffer B (25 mM Tris, pH 8.0, 300 mM NaCl, 1 mM EDTA) and then loaded onto a 1 mL Strep-Tactin Superflow high capacity cartridge (IBA, Gottingen, Germany). […]

T1 sequence (Q9C5U0 24-1080 limits assumed): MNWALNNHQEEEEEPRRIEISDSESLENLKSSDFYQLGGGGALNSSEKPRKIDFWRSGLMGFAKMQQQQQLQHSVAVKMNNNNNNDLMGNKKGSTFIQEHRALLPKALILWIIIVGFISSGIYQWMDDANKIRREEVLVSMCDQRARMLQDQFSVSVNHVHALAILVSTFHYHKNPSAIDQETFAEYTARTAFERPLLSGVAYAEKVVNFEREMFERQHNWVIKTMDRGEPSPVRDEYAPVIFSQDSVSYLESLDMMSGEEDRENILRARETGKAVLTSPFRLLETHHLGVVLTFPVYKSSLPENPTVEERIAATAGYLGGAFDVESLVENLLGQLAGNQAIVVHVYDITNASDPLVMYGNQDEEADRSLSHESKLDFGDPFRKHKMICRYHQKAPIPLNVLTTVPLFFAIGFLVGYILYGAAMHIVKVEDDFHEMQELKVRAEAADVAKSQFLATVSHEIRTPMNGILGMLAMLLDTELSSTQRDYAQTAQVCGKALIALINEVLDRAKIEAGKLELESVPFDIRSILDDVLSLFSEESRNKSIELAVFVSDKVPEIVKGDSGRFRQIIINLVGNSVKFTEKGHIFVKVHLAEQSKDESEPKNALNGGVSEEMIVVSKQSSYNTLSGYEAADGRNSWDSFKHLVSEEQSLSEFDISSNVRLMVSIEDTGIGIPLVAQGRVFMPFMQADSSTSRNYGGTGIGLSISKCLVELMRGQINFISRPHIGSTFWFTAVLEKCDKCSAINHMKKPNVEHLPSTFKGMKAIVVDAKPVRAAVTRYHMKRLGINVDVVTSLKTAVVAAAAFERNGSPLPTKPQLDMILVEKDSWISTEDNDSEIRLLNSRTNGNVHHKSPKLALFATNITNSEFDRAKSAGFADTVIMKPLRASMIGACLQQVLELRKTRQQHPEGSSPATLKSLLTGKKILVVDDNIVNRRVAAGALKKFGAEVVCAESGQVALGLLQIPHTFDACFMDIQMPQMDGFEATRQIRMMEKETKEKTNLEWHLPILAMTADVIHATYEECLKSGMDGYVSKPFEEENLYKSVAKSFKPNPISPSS

SMILES: C/C(=C\CNc1ncnc2c1ncn2[C@@H]1O[C@H](CO)[C@@H](O)[C@H]1O)CO (relative stereo) [tZr, trans-zeatin riboside]
- binding affinity to AHK4 [1]: high affinity
- stability of ligand during purification with AHK4 [2]: underwent hydrolysis during purification

Reference: US20130004966A1, “STRUCTURE OF CYTOKININS AND CYTOKININ RECEPTORS, AND MODULATION OF CYTOKININ SIGNALING” (Salk Institute for Biological Studies (027731), priority 2011, published 2013)
